Source: patent publication US11344521B2, “Methods for the treatment of leptomeningeal disease” (priority 2017, dated 2022)

Assay: Solubility in water
Type: physicochemical

## NC(=O)C(CCC(=O)[O-])NC(=O)Cc1ccccc1.[Na+] (stereo not shown) [Iso-PG, phenylacetylisoglutaminate sodium]
  solubility in water: soluble in water
